Source: US20260327191A1, “GSK3a INHIBITORS AND METHODS OF USE THEREOF” (Blueprint Medicines Corporation, priority 2023, published 2026)

Tests used:
GSK3B [1] = molecular target: T1, GSK3B (Homo sapiens, UniProt P49841); assay: NanoBRET cellular target engagement assay, Nanoluc-GSK3B in HEK293 cells; assay type: cell-based; set-up: expressed in transfected cells; details: NanoBRET GSK3β IC50, HEK293 cells, tracer K-8, 2 hours, 37° C
GSK3A = molecular target: T2, GSK3A (Homo sapiens, UniProt P49840); assay: NanoBRET cellular target engagement assay, Nanoluc-GSK3A in HEK293 cells; assay type: cell-based; details: NanoBRET GSK3α IC50, HEK293 cells, tracer K-8, 2 hours, 37° C
T2 construct: expressed in transfected cells
T2 sequence (P49840 whole entry): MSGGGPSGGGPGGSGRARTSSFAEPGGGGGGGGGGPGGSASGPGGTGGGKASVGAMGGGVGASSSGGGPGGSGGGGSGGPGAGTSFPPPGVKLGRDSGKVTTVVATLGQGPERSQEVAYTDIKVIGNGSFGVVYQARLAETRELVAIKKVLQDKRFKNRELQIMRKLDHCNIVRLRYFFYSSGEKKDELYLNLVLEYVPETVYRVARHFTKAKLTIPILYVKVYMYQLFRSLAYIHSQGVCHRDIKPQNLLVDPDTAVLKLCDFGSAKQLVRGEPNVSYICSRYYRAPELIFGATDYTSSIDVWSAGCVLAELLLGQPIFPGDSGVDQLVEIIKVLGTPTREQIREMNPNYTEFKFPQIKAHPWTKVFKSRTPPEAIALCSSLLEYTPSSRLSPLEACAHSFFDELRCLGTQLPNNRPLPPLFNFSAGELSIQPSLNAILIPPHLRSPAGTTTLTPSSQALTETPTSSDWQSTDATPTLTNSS

human GSK3α = molecular target: T3, human GSK3α (Homo sapiens, UniProt P49840); assay: In vitro enzymatic activity assay, GSK3α; assay type: biochemical; details: 1.0 mM ATP, 1.0 μM peptide substrate, 120 min, 25° C, read-out: Enzyme GSK3α (IC50)
T3 construct: Full length human GSK3α or GSK3B expressed as N-terminal GST fusion proteins; GST (N); purchased Carna Biosciences (Japan); host or cells: baculovirus host
T3 sequence (P49840 whole entry, the tested form may be a part): as the sequence (P49840 whole entry) above

GSK3B [2] = molecular target: T1, GSK3B; assay: In vitro enzymatic activity assay, GSK3β; assay type: biochemical; set-up: Full length human GSK3α or GSK3B expressed as N-terminal GST fusion proteins; GST (N); purchased Carna Biosciences (Japan); host or cells: baculovirus host; details: 1.0 mM ATP, 1.0 μM peptide substrate, 120 min, 25° C, read-out: Enzyme GSK3β (IC50)

T1 sequence (P49841 whole entry): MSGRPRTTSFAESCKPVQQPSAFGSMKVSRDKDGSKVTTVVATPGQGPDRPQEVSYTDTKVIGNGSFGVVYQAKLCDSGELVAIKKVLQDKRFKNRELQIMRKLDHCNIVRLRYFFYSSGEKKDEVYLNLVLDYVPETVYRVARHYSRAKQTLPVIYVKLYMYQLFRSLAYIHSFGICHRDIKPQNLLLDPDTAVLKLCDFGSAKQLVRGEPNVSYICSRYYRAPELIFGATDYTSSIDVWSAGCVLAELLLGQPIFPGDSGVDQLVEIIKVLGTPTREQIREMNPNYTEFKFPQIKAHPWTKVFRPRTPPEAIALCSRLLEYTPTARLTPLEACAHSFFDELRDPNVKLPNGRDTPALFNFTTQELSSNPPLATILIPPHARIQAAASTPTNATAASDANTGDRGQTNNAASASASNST

Row | IC50 (GSK3B [1]) [nM] | IC50 (GSK3A) [nM] | IC50 (human GSK3α) [nM] | IC50 (GSK3B [2]) [nM] | SMILES
1 | 196 | 3.5 | 2.2 | 152 | COC[C@@H](N)c1cncc(NC(=O)c2c(N)ncn(-c3c(Cl)cc(OC)cc3Cl)c2=O)c1 [Example 77, (S)-4-amino-N-(5-(1-amino-2-methoxyethyl)pyridin-3-yl)-1-(2,6-dichloro-4-methoxyphenyl)-6-oxo-1,6-dihydropyrimidine-5-carboxamide]
2 | 321 | 4.2 | 6.6 | 414 | CCCOc1cc(Cl)c(-n2cnc(N)c(C(=O)Nc3cncc(CNCC)c3)c2=O)c(Cl)c1 [Example 86, 4-amino-1-(2,6-dichloro-4-propoxyphenyl)-N-(5-((ethylamino)methyl)pyridin-3-yl)-6-oxo-1,6-dihydropyrimidine-5-carboxamide]
3 | 201 | 3.7 | 6 | 299 | CCOc1cc(C)c(-n2cnc(N)c(C(=O)Nc3cncc([C@H]4CCCCN4)c3)c2=O)c(C)c1 [Example 91, (R)-4-amino-1-(4-ethoxy-2,6-dimethylphenyl)-6-oxo-N-(5-(piperidin-2-yl)pyridin-3-yl)-1,6-dihydropyrimidine-5-carboxamide]
4 | 384 | 6.6 | 7.6 | 598 | CCC[C@@H](N)c1cncc(NC(=O)c2c(N)ncn(-c3c(C)cc(OCC)cc3C)c2=O)c1 [Example 94, (R)-4-amino-N-(5-(1-aminobutyl)pyridin-3-yl)-1-(4-ethoxy-2,6-dimethylphenyl)-6-oxo-1,6-dihydropyrimidine-5-carboxamide]
5 | 121 | 1.8 | 3.6 | 230 | Cc1cc(C(F)F)cc(C)c1-n1cnc(N)c(C(=O)Nc2cncc([C@H]3CCCCN3)c2)c1=O [Example 97, (R)-4-amino-1-(4-(difluoromethyl)-2,6-dimethylphenyl)-6-oxo-N-(5-(piperidin-2-yl)pyridin-3-yl)-1,6-dihydropyrimidine-5-carboxamide]
6 | 134 | 2.5 | 4.6 | 254 | COCc1cc(C)c(-n2cnc(N)c(C(=O)Nc3cncc([C@H]4CCCCN4)c3)c2=O)c(C)c1 [Example 98, (R)-4-amino-1-(4-(methoxymethyl)-2,6-dimethylphenyl)-6-oxo-N-(5-(piperidin-2-yl)pyridin-3-yl)-1,6-dihydropyrimidine-5-carboxamide]
7 | 565 | 7.4 | 20.5 | 1020 | CNCc1cncc(NC(=O)c2c(N)ncn(-c3c(C)cc(COC)cc3C)c2=O)c1 [Example 99, 4-amino-1-(4-(methoxymethyl)-2,6-dimethylphenyl)-N-(5-((methylamino)methyl)pyridin-3-yl)-6-oxo-1,6-dihydropyrimidine-5-carboxamide]
8 | 577 | 7.2 | 19.3 | 1130 | CNCc1cncc(NC(=O)c2c(N)ncn(-c3c(C)cc(C(F)F)cc3C)c2=O)c1 [Example 105, 4-amino-1-(4-(difluoromethyl)-2,6-dimethylphenyl)-N-(5-((methylamino)methyl)pyridin-3-yl)-6-oxo-1,6-dihydropyrimidine-5-carboxamide]
9 | 195 | 2.8 | 4.5 | 279 | CCC[C@@H](N)c1cncc(NC(=O)c2c(N)ncn(-c3c(C)cc(C(F)F)cc3C)c2=O)c1 [Example 106, (R)-4-amino-N-(5-(1-aminobutyl)pyridin-3-yl)-1-(4-(difluoromethyl)-2,6-dimethylphenyl)-6-oxo-1,6-dihydropyrimidine-5-carboxamide]
10 | 567 | 8.4 | 15.6 | 803 | Nc1ncn(-c2c(Cl)cc(OC(F)(F)F)cc2Cl)c(=O)c1C(=O)Nc1cncc([C@@H]2CCCN2)c1 [Example 109, (S)-4-amino-1-(2,6-dichloro-4-(trifluoromethoxy)phenyl)-6-oxo-N-(5-(pyrrolidin-2-yl)pyridin-3-yl)-1,6-dihydropyrimidine-5-carboxamide]
